According to US20260026499A1 (priority 2022, published 2026):
≈ marks a conversion by molar mass, not a printed value. Where two headings read alike, the source gives them in different places.

What was measured:
Assay type in all cases: cell-based
Fusarium oxysporum [1] = experiment: microbe, parasite or virus in culture
Fusarium fujikuroi [2] = settings: B = fludioxonil; for EC50: Fusarium fujikuroi, 72 h, mycelial growth, PDA, 25° C., 3 days; for ATI: ZJS178 as standard reagent
Source text: Test object: Fusarium fujikuroi preserved in a culture room of the laboratory.
(§1) The bioassay method was referred to the description in Example 9.

Fusarium oxysporum [3] = settings: B = fludioxonil; for EC50: Fusarium oxysporum, 72 h, mycelial growth, PDA, 25° C., 3 days; for ATI: ZJS178 as standard reagent
Source text: Test object: Fusarium oxysporum preserved in the laboratory.
as §1

Fusarium graminearum [4] = experiment: microbe, parasite or virus in culture; settings: for ATI: B = prochloraz; for EC50: Fusarium graminearum
[5] = test system: metconazole-resistance Fusarium fujikuroi(MR); experiment: microbe, parasite or virus in culture
Fusarium fujikuroi [6] = experiment: microbe, parasite or virus in culture; settings: for EC50: Fusarium fujikuroi, 72 h
[7] = test system: metconazole-sensitive Fusarium fujikuroi(MS); experiment: microbe, parasite or virus in culture
[8] = test system: F. oxysporum f.sp. lycopersici; settings: B = azoxystrobin; for EC50: mycelial growth, PDA with 50 μg/mL SHAM, 25° C., 3 days; for ATI: ZJS178 as standard reagent
Experimental: Test object: F. oxysporum f.sp. lycopersici isolated from diseased tomatoes from the field. The tested strains were identified by morphology and pathogenicity, and then stored in the laboratory for future use.
(§2) The above-mentioned F. oxysporum f.sp. lycopersici was inoculated on a PDA medium, and 50 μg/mL salicylhydroxamic acid (SHAM) was added to the culture medium to inhibit the […] bypass respiration.

Fusarium moniliforme = settings: B = pyraclostrobin; for EC50: Fusarium verticillioides, mycelial growth, method of Example 17; for ATI: ZJS178 as standard reagent
Experimental: as §2
Test object: Fusarium moniliforme preserved in a culture room of the laboratory. The bioassay method was referred to the description in Example 17.

Fusarium oxysporum [9] = experiment: microbe, parasite or virus in culture; settings: for EC50: Fusarium oxysporum, 72 h
Fusarium graminearum [10] = experiment: microbe, parasite or virus in culture; settings: for EC50: Fusarium graminearum, 72 h; for ATI: ZJS178 as standard reagent, B = pydiflumetofen
[11] = test system: tebuconazole-sensitive Fusarium graminearum (TS); experiment: microbe, parasite or virus in culture; settings: for EC50: Fusarium graminearum, 72 h; for Actual Toxicity Index (ATI): ZJS178 as standard reagent, TS strain
[12] = test system: F. oxysporum f.sp. niveum; settings: for EC50: Fusarium oxysporum, 72 h

Compound: CCCN(CCOc1c(Cl)cc(Cl)cc1Cl)C(=O)n1ccnc1.CCCN(CCOc1c(Cl)cc(Cl)cc1Cl)C(=O)n1ccnc1.CCCN(CCOc1c(Cl)cc(Cl)cc1Cl)C(=O)n1ccnc1.CCCN(CCOc1c(Cl)cc(Cl)cc1Cl)C(=O)n1ccnc1.[Cl][Mn][Cl] [Prochloraz-manganese chloride, reference compound]
- ATI (Fusarium oxysporum [1]): 14.46
- EC50 (Fusarium oxysporum [1]): 0.2758 µg/mL

Compound: N#Cc1c[nH]cc1-c1cccc2c1OC(F)(F)O2 [Fludioxonil (B), 4-(2,2-difluoro-1,3-benzodioxol-4-yl) pyrrole-3-carbonitrile, reference compound]
- EC50 (Fusarium fujikuroi [2]): 0.0529 µg/mL (≈ 0.213 µM)
- ATI (Fusarium fujikuroi [2]): 90.93
- EC50 (Fusarium oxysporum [3]): 0.0683 µg/mL (≈ 0.275 µM)
- ATI (Fusarium oxysporum [3]): 128.55

Compound: CCCN(CCOc1c(Cl)cc(Cl)cc1Cl)C(=O)n1ccnc1 [Prochloraz (B), N-propyl-N-[2-(2,4,6-trichlorophenoxy)ethyl]-imidazole-1-carboxamide, reference compound]
- ATI (Fusarium graminearum [4]): 11.88
- EC50 (Fusarium graminearum [4]): 0.319 µg/mL (≈ 0.847 µM)

Compound: CCOC(=O)/C(C#N)=C(\N)c1ccc(N(C)CC)cc1 [ZJS178 (A), ethyl 2-cyano-3-amino-3-[4-(N-ethyl-N-methylamino)phenyl]acrylate]
- EC50 ([5]; Fusarium fujikuroi, 72 h): 0.0621 µg/mL (≈ 0.227 µM)
- ATI ([5]; ZJS178 as standard reagent, MR strain): 100.00
- ATI (Fusarium oxysporum [1]): 100.00
- EC50 (Fusarium oxysporum [1]; Fusarium oxysporum): 0.0399 µg/mL (≈ 0.146 µM)
- ATI (Fusarium fujikuroi [6]): 100.00
- EC50 (Fusarium fujikuroi [6]): 0.0671 µg/mL (≈ 0.245 µM)
- EC50 (Fusarium fujikuroi [2]): 0.0481 µg/mL (≈ 0.176 µM)
- ATI (Fusarium fujikuroi [2]): 100.00
- ATI [7]: 100.00
- EC50 ([7]; Fusarium fujikuroi, 72 h): 0.069 µg/mL (≈ 0.252 µM)
- EC50 (Fusarium oxysporum [3]): 0.0878 µg/mL (≈ 0.321 µM)
- ATI (Fusarium oxysporum [3]): 100.00
- EC50 ([8]; Fusarium oxysporum, 72 h, read-out: EC50): 0.0461 µg/mL
- ATI [8]: 100.00
- EC50 (Fusarium moniliforme): 0.678 µg/mL (≈ 2.48 µM)
- ATI (Fusarium moniliforme): 100.00
- ATI (Fusarium oxysporum [9]): 100.00
- EC50 (Fusarium oxysporum [9]): 0.0399 µg/mL (≈ 0.146 µM)
- ATI (Fusarium graminearum [4]): 100.00
- EC50 (Fusarium graminearum [4]): 0.0379 µg/mL (≈ 0.139 µM)
- EC50 (Fusarium graminearum [10]): 0.0379 µg/mL (≈ 0.139 µM)
- ATI (Fusarium graminearum [10]): 100.00
- EC50 [11]: 0.0385 µg/mL (≈ 0.141 µM)
- Actual Toxicity Index (ATI) [11]: 100.00
- EC50 [12]: 0.0569 µg/mL (≈ 0.208 µM)
- Actual Toxicity Index ([12]; ZJS178 as standard reagent, B = thiophanate-methyl): 100.00

Compound: CON(C(=O)c1cn(C)nc1C(F)F)C(C)Cc1c(Cl)cc(Cl)cc1Cl (racemic) [Pydiflumetofen, 3-(difluoromethyl)-N-methoxy-1-methyl-N-[(RS)-1-methyl-2-(2,4,6-trichlorophenyl)ethyl]pyrazole-4-carboxamide, reference compound]
- EC50 (Fusarium graminearum [10]): 0.319 µg/mL (≈ 0.748 µM)
- ATI (Fusarium graminearum [10]): 11.88

Compound: COC(=O)NC(=S)Nc1ccccc1NC(=S)NC(=O)OC [Thiophanate-, 1,2-bis (3-carbomethoxy-2-thioureido)benzene, reference compound]
- EC50 [12]: 0.222 µg/mL (≈ 0.65 µM)

Compound: CO/C=C(/C(=O)OC)c1ccccc1Oc1cc(Oc2ccccc2C#N)ncn1 [Azoxystrobin (B), (E)-methyl 2-{2-[6-(2-cyanophenoxy)pyrimidin-4-yloxy]phenyl}-3-strobilurin, reference compound]
- ATI [8]: 5.59
- EC50 [8]: 0.8247 µg/mL

Compound: CC(C)(C)C(O)(CCc1ccc(Cl)cc1)Cn1cncn1 (racemic) [Tebuconazole (B), (RS)-1-p-chlorophenyl-4,4-dimethyl-3-(1H-1,2,4-triazol-1-ylmethyl)pentan-3-ol, reference compound]
- ATI (Fusarium oxysporum [9]): 14.46
- EC50 (Fusarium oxysporum [9]): 0.276 µg/mL (≈ 0.896 µM)
- EC50 [11]: 0.175 µg/mL (≈ 0.567 µM)
- Actual Toxicity Index (ATI) [11]: 22.05

Compound: COC(=O)N(OC)c1ccccc1COc1ccn(-c2ccc(Cl)cc2)n1 [Pyraclostrobin (B), methyl N-[2-[[1-(4-chlorophenyl)pyrazol-3-yl]oxymethyl]phenyl]-N-methoxycarbamate, reference compound]
- EC50 (Fusarium moniliforme): 4.99 µg/mL (≈ 12.9 µM)
- ATI (Fusarium moniliforme): 13.61

Compound: Cc1nn(C)c(F)c1C(=O)Nc1ccccc1C(C)CC(C)C (centres unmarked) [Penflufen (B), 5-fluoro-1,3-dimethyl-N-[2-(4-methylpentan-2-yl)phenyl]-1H-pyrazole-4-carboxamide, reference compound]
- ATI (Fusarium fujikuroi [6]): 22.85
- EC50 (Fusarium fujikuroi [6]): 0.294 µg/mL (≈ 0.925 µM)
